Holding throughout (assay type): in vivo, mouse
Series [1] can be described thus: LC/MS/MS quantification of drug exposure in E0771 tumor-bearing mice. The protocol: (§1) Tumor, liver, and feces samples are diluted in phosphate buffer and homogenized using ultrasonic processor. Plasma and homogenized tissue samples along with a set of standard and quality control samples are extracted by way of protein precipitation technique on Ostro plate (Waters) using 1% formic acid in acetonitrile spiked with internal standard. 2 μL of the filtered samples are injected using an autosampler and separated chromatographically using a Phenomenex, Synergi™, […], 50×3 mm, Polar-RP column, isocratic mobile phase combination of 0.1% formic acid in water and 0.1% formic acid in acetonitrile (40/60) with flow rate of 0.8 mL/min. The Sciex Qtrap 6500 mass spectrometer is used as the detector with positive electrospray in MRM ionization mode and an ion source temperature of 650° C. Quantification of Compound A is carried out using a calibration curve established with standards for the corresponding analyte concentration, retention time and mass profile.
Tumor, liver, and feces samples are diluted in phosphate buffer and homogenized using ultrasonic processor. […] Quantification of Compound B is carried out using a calibration curve established with standards for the corresponding analyte concentration, retention time and mass profile.

The nature of series [2]: LC/MS/MS quantification of drug exposure in 4T1 tumor-bearing mice. Conditions: in absence or presence of anti-PD1. Here is the method:
as §1

Series [3] deals with 4T1 murine breast cancer cells. Kind of series: 4T1 syngeneic breast cancer tumor growth and survival in mice. Conditions: 4T1 tumors. The protocol:
(§2) 4T1 murine breast cancer cells are obtained from the American Type Culture Collection (ATCC) and maintained in RPMI medium containing 10% fetal bovine serum, 4 mM glutamine, and 1% penicillin/streptomycin. The cells were cultured in tissue culture flasks in a humidified incubator at 37° C., in an atmosphere of 5% CO2 and 95% air. The 4T1 tumor cells used for implantation are harvested and re-suspended at a concentration of 50×10^3 cells/mL in cold PBS. Nine weeks old female Balb/c mice (Balb/cJ, Jackson Laboratory) are injected subcutaneously in the right flank with 10×10^3 cells in 0.2 mL cold PBS. […] Mice are randomized in groups after the tumors are measured with a caliper in two dimensions to monitor size. Tumor size is calculated using the formula: Tumor Volume (mm^3)=(w^2×1)/2 where w=width and l=length, in mm. Tumors are measured twice per week for the duration of the study. Each mouse is euthanized as it reached a tumor volume endpoint of 1500 mm^3 or if they show any type of discomfort, whichever comes first.
(§3) The anti-PD-1 RMP1-14 (Lot No. 800121F12A) and isotype (Lot No. 749620N1) antibody are purchased from BioXCell. The stock solution is diluted in PBS to yield a dosing solution of 0.1 or 1 mg/mL, which delivered 1 or 10 mg/kg respectively in a dosing volume of 0.2 mL (10 mL/kg, for a […]). Mice are administered isotype or anti-PD-1 RMP1-14 intraperitoneally in 0.2 mL (10 mL/kg, for a […]) twice a week.
as §2, with “(mm^3) (w^2×1)/2” for “(mm^3)=(w^2×1)/2”

The test system of series [4] is E0771 murine breast cancer cells. Put plainly: E0771 syngeneic breast cancer tumor growth in mice. Conditions: E0771 tumors. Here is the method: E0771 murine breast cancer cells are obtained from the American Type Culture Collection (ATCC) and maintained in DMEM medium containing 10% fetal bovine serum, 4 mM glutamine, 20 mM HEPES, and 1% penicillin/streptomycin. The cells are cultured in tissue culture flasks in a humidified incubator at 37° C., in an atmosphere of 5% CO2 and 95% air. The E0771 tumor cells used for implantation are harvested and re-suspended at a concentration of 2.5×10^6 cells/mL in cold PBS. Nine weeks old female C57Bl/6 mice (C57Bl/6J, Jackson Laboratory) are injected subcutaneously in the right flank with 0.5×10^6 cells in 0.2 mL cold PBS. 10 days later the mice have a palpable size tumor, and specified size to start treatments (around 100 mm^3). Mice are randomized in groups after the tumors are measured with a caliper in two dimensions to monitor size. Tumor size is calculated using the formula: Tumor Volume (mm^3)=(w^2×1)/2 where w=width and l=length, in mm. Tumors are measured twice per week for the duration of the study. Each mouse is euthanized as it reached a tumor volume endpoint of 1500 mm^3 or if they show any type of discomfort, whichever comes first.
[…] Compound A is synthesized at Intra-Cellular Therapies Inc. Compound A diets are used to treat mice. Compound A diet 900 ppm (diet supplements 900 mg of Compound A per kg to Picolab Rodent Diet 5053) is produced by Envigo (Madison WI). Mice are dosed 5 days a week with vehicle or Compound A.
as §3
Mice are treated with Compound B alone, anti-PD-1 antibody alone, or the combination of Compound B and anti-PD-1 antibody. Compound B is synthesized at Intra-Cellular Therapies Inc. Compound B diets are used to treat mice. […]

Setting [5] is: Example 2, Compound A 300 ppm or 900 ppm in diet, monotherapy or with anti-PD1 10 mg/kg.

Take `CC(=O)c1ccc(Cn2nc3c(c2Nc2ccc(F)cc2)C(=O)N(C)C2=NC(C)(C)CN23)cc1` [Compound B]: the “exposure in plasma and tissues” value in series [1] (Example 3, Compound B in diet, in absence or presence of anti-PD1) is “comparable”; in series [2] (Example 4, Compound B in diet), “comparable”. Further, in series [3] (Example 4, Compound B 100, 300 or 900 ppm in diet, anti-PD1 10 mg/kg, alone or combined, anti-PD1 alone: after day 5, vs isotype and/or anti-PD1 alone), the tumor volume entry is recorded as “significantly reduces”. For the same compound, the “tumor weight at terminal sacrifice” value in series [3] (Example 4, Compound B 100, 300 or 900 ppm in diet, anti-PD1 10 mg/kg, alone or combined, treatment day 14, vs isotype and/or anti-PD1 alone) is listed as “significantly reduces”. For the same compound, the “tumor volume or weight relative to isotype (control) and/or anti-PD1 alone” value in series [4] (Example 3, Compound B 100, 300 or 900 ppm in diet, monotherapy or with anti-PD1 1 mg/kg) is given as “significantly reduces”.

Consider `CN1C(=O)c2c(nn(Cc3ccc(-c4cccc(F)n4)cc3)c2Nc2ccccc2)N2C1=N[C@@H]1CCC[C@@H]12` [Compound A], for which, in series [1] (Example 1, Compound A 900 ppm in diet, all groups receiving Compound A), the “drug exposures in plasma, tissues, and feces” value was “comparable”. For the same compound, the “exposure in plasma and tissues” value in series [2] (Example 2, Compound A in diet) is “comparable”. Moreover, in series [3] (setting [5]), the survival of animals entry is “improved” and the “tumor volume or weight relative to isotype (control)” value is recorded as “significantly reduce”. The tumor volume result in series [4] (Example 1, C57Bl/6 mice, Compound A 900 ppm in diet, anti-PD1 10 mg/kg ip, alone or combined, day 3, 7, 10, 14, 17, vs isotype control) was “Neither Compound A (900 ppm) treatment alone nor anti-PD-1 antibody (10 mg/kg) treatment alone shows a significant effect”. In series [4] (Example 1, Compound A 900 ppm in diet, anti-PD1 10 mg/kg, alone or combined, treatment day 17, vs isotype control), the “tumor weight at terminal sacrifice” value is reported as “Neither Compound A (900 ppm) treatment alone nor anti-PD-1 antibody (10 mg/kg) treatment alone shows a significant effect”.

The values above are taken from patent US20250186446A1, “ORGANIC COMPOUNDS” (INTRA-CELLULAR THERAPIES, INC., priority 2022, published 2025).
